Experimental data published in patent publication EP2140864A2 (H. Lundbeck A/S, priority 2001, dated 2002).
pKi: −log10 of the molar value. Like-named read-outs stand apart in the source and are kept apart here. Marks after values point to notes of the source that are not given here.

Legend:
human GAL2 receptor = target: T1, human GAL2 receptor (Homo sapiens, UniProt O43603); assay: Radioligand binding at cloned human GAL2 receptor; conditions: pyrimidines, read-out: Ki GalR2
T1 construct: expressed in transfected cells
T1 sequence (O43603 1-387): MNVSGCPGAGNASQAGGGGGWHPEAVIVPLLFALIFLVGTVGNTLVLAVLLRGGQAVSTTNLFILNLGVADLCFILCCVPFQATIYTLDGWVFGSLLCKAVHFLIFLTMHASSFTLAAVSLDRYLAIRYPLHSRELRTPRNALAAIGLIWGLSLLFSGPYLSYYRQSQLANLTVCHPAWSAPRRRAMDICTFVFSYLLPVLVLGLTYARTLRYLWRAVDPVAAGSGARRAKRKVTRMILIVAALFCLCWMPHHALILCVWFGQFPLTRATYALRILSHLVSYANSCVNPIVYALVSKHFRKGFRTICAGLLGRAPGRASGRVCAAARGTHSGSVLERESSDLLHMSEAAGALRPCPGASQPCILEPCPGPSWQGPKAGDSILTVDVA
Protocol: The binding properties of the pyrimidines of the present invention were evaluated at the cloned human galanin receptors, GAL1, GAL2, and GAL3, using protocols described herein.
The binding properties of the indolones of the present invention were evaluated at the cloned human galanin receptors, GAL1, GAL2, and GAL3, using protocols described herein.
LM(tk-) cells were stably transfected with the human GAL1 or GAL3 receptor. CHO cells were stably transfected with the human GAL2 receptor.
cDNAs for the human and rat GAL1, and human and rat GAL3 receptors were transfected with a G-418 resistant gene into the mouse fibroblast LM(tk-) cell line by a calcium phosphate transfection method (Cullen, 1987). Stably transfected cells were selected with G-418. Human and rat GAL2 receptors were similarly transfected into CHO cells.
Membranes were harvested from stably transfected LM(tk-) cells. Adherent cells were washed twice in ice-cold phosphate buffered saline (138 mM NaCl, 8.1 mM Na2HPO4, 2.5 mM KCl, 1.2 mM KH2PO4, 0.9 mM CaCl2, 0.5 mM MgCl2, pH 7.4) and lysed by sonication in ice-cold sonication buffer (20 mM Tris-HCl, 5 mM EDTA, pH 7.7). Large particles and debris were cleared by low speed centrifugation (200 x g, 5 min, 4°C). Membranes were collected from the supernatant fraction by centrifugation (32,000 x g, 18 min, 4°C), washed with ice-cold hypotonic buffer, and collected again by centrifugation (32,000 x g, 18 min, 4°C). The final membrane pellet was resuspended by sonication into a small volume of ice-cold binding buffer (-1 ml for every 5 plates: 10 mM NaCl, 20 mM HEPES, 0.22 mM KH2PO4, 1.26 mM CaCl2, 0.81 mM MgSO4, pH 7.4). Protein concentration was measured by the Bradford method (Bradford, 1976) using Bio-Rad Reagent, with bovine serum albumin as a standard. Membranes were held on ice for up to one hour and used fresh, or flash frozen and stored in liquid nitrogen. Membranes were prepared similarly from CHO cells.
Galanin Recentors: Binding assays were performed according to the following published methods: human GAL3 (PCT International Publication No. WO 98/15570), human GAL1 (PCT International Publication No. WO 95/2260), human GAL2 (PCT International Publication No. WO 97/26853).
Binding data were analyzed using nonlinear regression and statistical techniques available in the GraphPAD Prism package (San Diego, CA). Enzymatic assay data were derived from a standard curve of reference compound data.

human GAL3 receptor = target: T2, human GAL3 receptor (Homo sapiens, UniProt O60755); assay: Radioligand binding at cloned human GAL3 receptor; conditions: cloned human receptor, read-out: Ki GalR3
T2 construct: expressed in transfected cells
T2 sequence (O60755 1-368): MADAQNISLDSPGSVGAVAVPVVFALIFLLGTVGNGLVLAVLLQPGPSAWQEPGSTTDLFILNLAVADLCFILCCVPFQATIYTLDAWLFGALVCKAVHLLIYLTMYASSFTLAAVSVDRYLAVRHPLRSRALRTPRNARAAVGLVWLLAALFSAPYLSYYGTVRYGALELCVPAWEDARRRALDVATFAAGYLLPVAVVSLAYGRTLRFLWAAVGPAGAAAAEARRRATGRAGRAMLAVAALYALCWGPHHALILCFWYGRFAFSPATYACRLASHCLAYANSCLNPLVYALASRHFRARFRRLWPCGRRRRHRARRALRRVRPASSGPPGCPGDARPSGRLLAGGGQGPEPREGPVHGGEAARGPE
In short: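 Compound vehicle, as final assay concentration, was 3% DMSO (indolones) or 1% ethanol/0.09% polypuronic acid F-127 (pyrimidines). Binding measured on fresh or frozen membranes of stably transfected LM(tk-) mouse fibroblasts carrying cloned human GAL3, in pH 7.4 HEPES buffer; values derived by nonlinear regression.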

Male Sprague-Dawley rats = assay: Rat Forced Swim Test (FST); format: in vivo; conditions: for antidepressant profile in the FST (conclusion): overall conclusion of the study
Protocol: The procedure used in this study was similar to that previously described (Porsolt, et al., 1978), except the water depth (30 cm in this procedure). The greater depth in this test prevented the rats from supporting themselves by touching the bottom of the cylinder with their feet. Swim sessions were conducted by placing rats in individual plexiglass cylinders (46 cm tall x 20 cm in diameter) containing 23-25°C water 30 cm deep (Porsolt, et al. used a depth of only 15 cm; also, see Detke, et al., 1995). Two swim tests were conducted always between 1200 and 1800 hours: an initial 15-min pretest followed 24 h later by a 5-minute test. […] All other test sessions were conducted between 1300 to 1700 hours. Following all swim sessions, rats were removed from the cylinders, dried with paper towels and placed in a heated cage for 15 minutes and returned to their home cages. All test sessions were videotaped using a Panasonic color video camera and recorder for scoring later.
Male Sprague-Dawley rats (Taconic Farms, NY) were used in all experiments. Rats were housed in pairs and maintained on a 12:12-h light-dark cycle. Rats were handled for 5 minutes each day for 5 days prior to behavioral testing.
The rat's behavior was rated at 5 second intervals during the 5 minute test as one of the following: • 1. Immobility- rat remained floating in the water without struggling and was only making those movements necessary to keep its head above water; • 2. Climbing - rat was making active movements with its forepaws in and out of the water, usually directed against the walls; • 3. Swimming - rat was making active swimming motions, more than necessary to merely maintain its head above water, e.g. moving around in the cylinder; and • 4. Diving - entire body of the rat was submerged.
All of the behavior scoring was done by a single rater, who was blind to the treatment condition. The rater was also present in the room throughout the entire test period.
All injections were given using 1 cc tuberculin syringe with 26 3/8 gauge needles (Becton-Dickinson, VWR Scientific, Bridgeport, NJ). The volume of injection was 1 ml/kg.
The drugs were dissolved in 100% N,N-dimethylacetamide. All administrations were given using 1 cc tuberculin syringes, to which a 3 inch, curved, stainless steel gavage needle was attached. The volume of administration was 1 ml/kg.
The compounds were dissolved in 100% N,N-dimethylacetamide. All administrations were given using 1 cc tuberculin syringes, to which a 3 inch, curved, stainless steel gavage needle was attached. The volume of administration was 1 ml/kg.
The forced swim test data (immobility, swimming, climbing, diving) were subjected to a randomized, one-way ANOVA and post hoc tests conducted using the Student-Newman-heuls test. The data were analyzed using the GBSTAT program, version 6.5 (Dynamics Microsystems, Inc., Silver Spring, MD, 1997). All data are presented as means ± S.E.M.

[1] = 3 mg/kg p.o., single administration 24 hours before the test day
[2] = 1 mg/kg p.o., single administration, 1 hr. before test
[3] = 3 mg/kg p.o., single administration, 1 hr. before test
[4] = 10 mg/kg p.o., single administration, 1 hr. before test
[5] = 5 mg/kg p.o., single administration, 1 hr. before test
[6] = 10 mg/kg i.p., single injection, 5 minute test
[7] = 10 mg/kg p.o., single administration 24 hours before the test day

| SMILES | pKi (human GAL2 receptor) | pKi (human GAL3 receptor; pyrimidines) | other results |
| --- | --- | --- | --- |
| Cc1ccc(Nc2cc(N3CCCCC3)nc(N3CCC(O)(c4ccccc4)CC3)n2)cc1 [Example 44] | 5.99 | 6.88 | – |
| Cc1ccc(Nc2cc(N3CCCCC3)nc(N3CCC(c4ccccc4)CC3)n2)cc1 [Example 24] | 5.40 | 6.68 | – |
| Cc1ccc(Nc2cc(N(C)C)nc(N3CCN(c4ccccc4C)CC3)n2)cc1 [Example 85] | 5.37 | 7.14 | – |
| Cc1ccc(Nc2cc(N3CCCCC3)nc(NCCc3c[nH]c4ccccc34)n2)cc1 [Example 10] | 6.06 | 7.00 | – |
| Cc1ccc(Nc2cc(N3CCCCC3)nc(N3CCN(c4ccccn4)CC3)n2)cc1 [Example 30] | 5.58 | 6.71 | – |
| Cc1ccc(Nc2cc(N3CCCCC3)nc(N(C)c3ccccc3)n2)cc1 [Example 6] | 5.67 | 6.61 | – |
| Cc1ccc(Nc2cc(N3CCCCC3)nc(N3CCCc4ccccc43)n2)cc1 [Example 40] | 5.58 | 6.79 | – |
| Cc1ccc(Nc2cc(N(C)C)nc(N3CCN(c4ccc(C)cc4)CC3)n2)cc1 [Example 87] | 5.34 | 6.80 | – |
| O=C1/C(=N\c2ccc(Cl)c(Cl)c2)c2ccccc2N1c1ccsc1 [Example 272, (3Z)-3-[(3,4-DICHLOROPHENYL)IMINO]-1-(3-THIENYL)-1,3-DIHYDRO-2H-INDOL-2-ONE] | – | – | Climbing (Male Sprague-Dawley rats; [1]): 3.9 ± 0.6; Diving (Male Sprague-Dawley rats; [1]): 0.6 ± 0.4; Immobility (Male Sprague-Dawley rats; [1]): 33 ± 1.8^a; Swimming (Male Sprague-Dawley rats; [1]): 22.9 ± 1.3^b; antidepressant profile in the FST (conclusion) (Male Sprague-Dawley rats): has the profile of an antidepressant; pKi (human GAL3 receptor; indolones): 7.59 |
| Cc1ccc(Nc2cc(N(C)C)nc(N3CCC(c4ccccc4)CC3)n2)cc1 [Example 81] | 5.32 | 6.80 | – |
| COc1ccc2[nH]cc(CCNc3nc(Nc4ccc(C)cc4)cc(N4CCCCC4)n3)c2c1 [Example 9] | 5.68 | 6.25 | – |
| COCCN(CCc1c[nH]c2ccccc12)c1nc(Nc2ccc(C)cc2)cc(N2CCCCC2)n1 [Example 19] | 5.75 | 7.10 | – |
| Cc1ccc(Nc2cc(N3CCCCC3)nc(N3CCN(c4cc(C(F)(F)F)ccn4)CC3)n2)cc1 [Example 32] | 5.73 | 6.84 | – |
| Cc1ccc(Nc2cc(N3CCCCC3)nc(N3CCN(c4ncccc4C)CC3)n2)cc1 [Example 31] | 5.47 | 6.76 | – |
| CN(C)c1cc(Nc2ccc(Cl)c(Cl)c2)nc(N2CCN(Cc3ccccc3)CC2)n1 [Example 151] | – | 7.96 | Climbing (Male Sprague-Dawley rats; [2]): 2.3 ± 0.6; Diving (Male Sprague-Dawley rats; [2]): 0.2 ± 0.2; Immobility (Male Sprague-Dawley rats; [2]): 41 ± 2.0; Swimming (Male Sprague-Dawley rats; [2]): 16.8 ± 1.4^d; Climbing (Male Sprague-Dawley rats; [3]): 2.4 ± 0.5; Diving (Male Sprague-Dawley rats; [3]): 0.3 ± 0.2; Immobility (Male Sprague-Dawley rats; [3]): 38 ± 2.0^a; Swimming (Male Sprague-Dawley rats; [3]): 19.5 ± 1.5^e; Climbing (Male Sprague-Dawley rats; [4]): 2.2 ± 0.5; Diving (Male Sprague-Dawley rats; [4]): 0.3 ± 0.2; Immobility (Male Sprague-Dawley rats; [4]): 39 ± 1.8^b; Swimming (Male Sprague-Dawley rats; [4]): 18.9 ± 1.5^e; antidepressant profile in the FST (conclusion) (Male Sprague-Dawley rats): resemble those of antidepressants |
| Cc1ccc(Nc2cc(N3CCCCC3)nc(NCCc3c[nH]c4ccc(C)cc34)n2)cc1 [Example 8] | 6.10 | 6.58 | – |
| CNCCC(Oc1ccc(C(F)(F)F)cc1)c1ccccc1 (centres unmarked) [Fluoxetine, fluoxetine, reference compound] | – | – | Climbing (Male Sprague-Dawley rats; [5]): 1.2 ± 0.4; Diving (Male Sprague-Dawley rats; [5]): 0.0 ± 0.0; Immobility (Male Sprague-Dawley rats; [5]): 45 ± 1.3^c; Swimming (Male Sprague-Dawley rats; [5]): 13.9 ± 1.0; Climbing (Male Sprague-Dawley rats; [6]): 14.3 ± 0.9 counts; Diving (Male Sprague-Dawley rats; [6]): 0.1 ± 0.1; Immobility (Male Sprague-Dawley rats; [6]): 21 ± 0.9^a counts; Swimming (Male Sprague-Dawley rats; [6]): 25 ± 1.2^b counts; Climbing (Male Sprague-Dawley rats; [7]): 3.3 ± 0.6; Diving (Male Sprague-Dawley rats; [7]): 0.2 ± 0.1; Immobility (Male Sprague-Dawley rats; [7]): 35 ± 1.7^a; Swimming (Male Sprague-Dawley rats; [7]): 21.4 ± 1.0^b |
| Cc1ccc(Nc2cc(N(C)C)nc(N3CCN(Cc4ccccc4)CC3)n2)cc1 [Example 253] | – | 7.31 | – |
| COc1cccc(CN2CCN(c3nc(Nc4ccc(C)cc4)cc(N(C)C)n3)CC2)c1 [Example 142] | – | 7.55 | – |
| COc1ccc(OC)c(Nc2cc(N(C)C)nc(N3CCN(c4ccccn4)CC3)n2)c1 [Example 201] | – | 6.25 | – |
| CN(C)c1cc(Nc2cccc(F)c2)nc(Nc2ccccc2)n1 [Example 57] | – | 6.44 | – |
| Cc1cc(N=C2C(=O)N(c3ccsc3)c3ccccc32)ccc1Cl [Example 290] | – | – | pKi (human GAL3 receptor; indolones): 7.26 |
| Cc1ccc(C(F)(F)F)cc1/N=C1\C(=O)N(c2ccccc2)c2ccccc21 [Example 289, (3Z)-3-{[2-METHYL-5-(TRIFLUOROMETHYL)PHENYL]IMINO}-1-PHENYL-1,3-DIHYDRO-2H-INDOL-2-ONE] | – | – | pKi (human GAL3 receptor; indolones): 7.23 |
| O=C1C(=Nc2cccc(C(F)(F)F)c2)c2ccccc2N1c1ccsc1 (mixture of isomers) [Example 109, 1-(3-THIENYL)-3-{[3-(TRIFLUOROMETHYL)PHENYL]IMINO}-1,3-DIHYDRO-2H-INDOL-2-ONE] | – | – | pKi (human GAL3 receptor; indolones): 6.99 |
| CN(C)c1cc(Nc2cccc(OC(F)(F)F)c2)nc(N2CCN(c3ccccn3)CC2)n1 [Example 207] | – | 7.24 | – |
